Experimental data from article PMC3395807 (Journal of Medicinal Chemistry, 2012).
Entries after “also recorded” stand apart in the source; their conditions may differ.

Tests used:
rat plasma protein = assay: Rat plasma protein binding
human plasma protein = assay: Human plasma protein binding
DENV [1] = assay: DENV in-cell western assay in Huh7.5 cells; format: cell-based, dengue virus; details: DENV infected Huh7.5 cells, side-by-side comparison, Figure 5A
mouse plasma protein = assay: Mouse plasma protein binding
[2] = system: human CYP450s (1A2, 2C9, 2C19, 2D6, and 3A4); assay: Inhibition of five major human CYP450s; details: 10 μM
DENV [3] = assay: DENV virus yield reduction assay in BHK cells; format: cell-based, dengue virus (serotype 2, New Guniea C strain); details: 0.8 to 20 μM, Figure 5B
[4] = MTT cytotoxicity assay in BHK cells; details: hamster
DENV [5] = details: DENV infected AG129 mice; cited from earlier work

Rat Plasma Protein Binding (rat plasma protein) | Human Plasma Protein Binding (human plasma protein) | Mouse Plasma Protein Binding (mouse plasma protein) | inhibition on any of the five major drug metabolizing human CYP450s [2] | SMILES | antiviral activity in in-cell western assay (DENV [1]) | reduction of DENV titers (DENV [3]) | CC50 [4] | in vivo antiviral efficacy (viremia) (DENV [5])
79 % bound | 80 % bound | – | – | Cc1cccc(OCCCCCCN2C[C@H](O)[C@@H](O)[C@H](O)[C@H]2CO)c1 [Compound 3c] | – | – | – | –
71 % bound | 78 % bound | 79 % bound | no inhibition | OC[C@@H]1[C@@H](O)[C@H](O)[C@@H](O)CN1CCCCCCOc1cccc(F)c1 [Compound 3j, (2R,3R,4R,5S)-1-(6-(3-Fluorophenoxy)hexyl)-2-(hydroxymethyl)piperidine-3,4,5-triol] | much improved antiviral activity compared to compound 7 | – | – | –
90 % bound | 93 % bound | – | – | OC[C@@H]1[C@@H](O)[C@H](O)[C@@H](O)CN1CCCCCCOc1cccc(C(F)(F)F)c1 [Compound 3p] | – | – | – | –
57 % bound | 68 % bound | – | no inhibition | CCCOc1cccc(CCCN2C[C@H](O)[C@@H](O)[C@H](O)[C@H]2CO)c1 [Compound 4b, (2R,3R,4R,5S)-2-(Hydroxymethyl)-1-(3-(3-propoxyphenyl)propyl)piperidine-3,4,5-triol] | much improved antiviral activity compared to compound 7 | – | – | –

More lines, now with the values behind:

SMILES | Rat Plasma Protein Binding (rat plasma protein) | Human Plasma Protein Binding (human plasma protein) | Mouse Plasma Protein Binding (mouse plasma protein) | inhibition on any of the five major drug metabolizing human CYP450s [2] | antiviral activity in in-cell western assay (DENV [1]) | reduction of DENV titers (DENV [3]) | CC50 [4] | in vivo antiviral efficacy (viremia) (DENV [5])
CCCC(CCC)OCCCCCCN1C[C@H](O)[C@@H](O)[C@H](O)[C@H]1CO [Compound 1c] | 77 % bound | 91 % bound | – | – | – | – | – | –
OC[C@@H]1[C@@H](O)[C@H](O)[C@@H](O)CN1CCCCCCOC1CCCCCC1 [Compound 2l, (2R,3R,4R,5S)-1-(6-(Cycloheptyloxy)hexyl)-2-(hydroxymethyl)piperidine-3,4,5-triol] | 65 % bound | 71 % bound | – | – | much improved antiviral activity compared to compound 7 | – | – | –
OC[C@@H]1[C@@H](O)[C@H](O)[C@@H](O)CN1CCCCCCOc1cc(F)ccc1F [Compound 3l, (2R,3R,4R,5S)-1-(6-(2,5-Difluorophenoxy)hexyl)-2-(hydroxymethyl)piperidine-3,4,5-triol] | 68 % bound | 74 % bound | 77 % bound | – | much improved antiviral activity compared to compound 7; also recorded: the most potent one | being the most potent | – | –
COc1ccccc1OCCCCCCN1C[C@H](O)[C@@H](O)[C@H](O)[C@H]1CO [Compound 3s] | 70 % bound | 65 % bound | – | no inhibition | – | – | – | –
OC[C@@H]1[C@@H](O)[C@H](O)[C@@H](O)CN1CCCCCCOCc1ccccc1 [Compound 3v, (2R,3R,4R,5S)-1-(6-(Benzyloxy)hexyl)-2-(hydroxymethyl)piperidine-3,4,5-triol] | 49 % bound | 52 % bound | – | no inhibition | much improved antiviral activity compared to compound 7 | – | – | –
OC[C@@H]1[C@@H](O)[C@H](O)[C@@H](O)CN1CC/C=C\CCOc1cc(F)ccc1F [Compound 5c, (2R,3R,4R,5S)-1-((Z)-6-(2,5-Difluorophenoxy)hex-3-en-1-yl)-2-(hydroxymethyl)piperidine-3,4,5-triol] | – | – | – | – | – | – | > 500 µM | –
CCC(O)(CC)CCCCCCN1C[C@H](O)[C@@H](O)[C@H](O)[C@H]1CO [Compound 7, (2R,3R,4R,5S)-1-(7-Ethyl-7-hydroxynonyl)-2-(hydroxymethyl)piperidine-3,4,5-triol] | 30 % bound | 33 % bound | – | – | – | – | – | reducing viremia
